Measured values reported in patent US20220402872A1, “PHOTOPOLYMERIZABLE ANTIBACTERIAL MONOMER” (UNIVERSITA' DEGLI STUDI DI TRIESTE, priority 2019, published 2022).

Columns and labels:
Format in all cases: cell-based
S. mutans (ATCC 25175) = test: Determination of the minimum bactericidal concentration (MBC); conditions: Streptococcus mutans, ATCC25175; against S. Mutans
Protocol: A 20 mg/mL compound stock solution in BHI medium is prepared. In a 96-well plate, the compound solution is diluted serially (the concentration is halved at each step) to obtain the following final concentrations after addition of the bacteria suspension: 10 mg/mL; 5 mg/mL; 2.5 mg/mL; 1.25 mg/mL; 0.625 mg/mL; 0.31 mg/mL; 0.15 mg/mL; 0.08 mg/mL; 0.04 mg/mL; 0.02 mg/mL. Wells containing a mixture of penicillin and streptomycin antibiotics are used as a positive control. Compound-free medium is used as a growth control. A volume of bacterial suspension equal to 0.5*10^6 bacteria/mL is added to each well containing the compound and the controls. The dish is incubated at 37° C. for 24 hours. The lowest compound concentration at which no turbidity of the culture medium is evident is defined as MIC. For the calculation of MBC, aliquots equal to 50 μL are taken from the wells showing evident no turbidity of the medium and are plated on BHI agar plates for 48 hours. […] Bacterial suspensions taken from the positive control (growth medium only) and the negative control (growth medium with Ampicilin 100 μg/mL) are also seeded.
In order to test the antibacterial properties of the compounds prepared in Examples 1-8, on colonies of S. mutans (ATCC 25175), a bacterium commonly found in the human oral cavity, a test was set up to determine the minimum inhibitory concentration (MIC) and the minimum bactericidal concentration (MBC) according to the “Determination of minimum inhibitory concentration (MIC)” methods and “Determination of minimum bactericidal concentration (MBC)” described above.

[1] = system: primary cells from human dental pulp; test: Determination of the cytotoxicity (MTS assay); conditions: for maximum (tested) non-cytotoxic concentration: primary dental pulp cells
Protocol: Tested cells: primary from dental pulp in complete high glucose DMEM medium+1 mg ascorbic acid, seeded in 96-well dishes;
Cell viability detection method: MTS assay from Promega (CellTiter 96® AQueous One Solution Cell Proliferation Assay) colorimetric metabolic assay that allows to evaluate variations in the number of cells being a dye reduced by cellular dehydrogenases. The greater the number of cells, the greater the amount of reduced compound;
Execution time: 24 hours and 72 hours from treatment;
Negative control: cells seeded in complete DMEM medium (CNT) are used;
Number of samples: for 24 hours, 6 samples of each type; for 72 hours 8 samples of each type.
Procedure: Cells (6000/well) are seeded on a 96-well dish to form a monolayer at approximately 40% confluence. After 24 hours the medium is replaced by a medium in which the compound has previously been solubilized, sterilized by 0.22 micron filtration. Growth medium alone is used as a negative control (CNT). At the following 24 and 72 hours the colorimetric test is performed. The absorbance values for each sample are averaged and the standard deviation calculated. The percent viability is calculated on the negative control.
The compounds according to Examples 1, 5, 6, and 7 were tested in order to evaluate their cytotoxicity on primary cells from human dental pulp according to the “Determination of cytotoxicity” method described above, obtaining the values reported respectively in the following Tables 3, 4, 5, and 6. Cells were extracted from healthy third molars of patients after informed consent (Authorization Single Regional Committee FVG, study ID 2433, 29 Aug. 2018). After extraction, the stem cell nature was ascertained by evaluating the expression of the positive markers CD 90, CD 73, CD 29 and the negative markers CD 14, CD 34 and CD 45.

[2] = system: S. mutans bacterial suspension (ATCC 25175); test: Direct contact test (DCT) in bonding resin R2
Protocol: The DCT test is based on the turbidimetric determination of bacterial growth in 96-well microplates.
On the wall of each well, 15 μL of the resin to be tested are polymerized for 40 s, using a VALO® Grand LED curing light (Ultradent, Milan, Italy) in standard mode (1000 mW/cm^2, 2 maximum of emission in the ranges of wavelengths 395-415 nm and 440-480 nm);
In this way the side walls of the wells are coated with the polymerized material under test. The wells are then washed with phosphate buffered saline (PBS) before inoculating them with bacteria. Keeping the plate in vertical position, 10 μL of S. mutans bacterial suspension (ATCC 25175) in brain heart infusion medium (BHI) from an o/n culture, is then deposited on the layer of material present on the side walls of the wells. The plate is held upright for 1 hour to allow direct contact between bacteria and the cured material. 200 μL culture broth is then added to each of the wells with gentle mixing. The microplate is then placed in the chamber of a spectrophotometer for ELISA plates reading at 37° C. and the optical density in each well is measured at 600 nm at regular intervals (every 30 minutes for 18 hours). The whole experiment is conducted under aseptic conditions and is repeated on three microplates to ensure reproducibility of the result. 24 wells for each microplate were tested for each sample.
The bactericidal properties of the compounds according to Examples 1, 5, 6 and 7 within a reference bonding resin called R2 were tested using the “Direct contact test (DCT)” method described above. As a negative reference, the reference bonding resin was used without adding compounds according to the invention.
The reference resin called R2 has the following composition (% by weight): • 70% Bis-GMA (bisphenol A glycidyl dimethacrylate, CAS 1565-94-2, Sigma-Aldrich); • 28.75% TEGDMA (triethylene glycol dimethacrylate, CAS 109-16-0, Sigma-Aldrich); • 0.25% CQ (Camphorquinone, CAS 10373-78-1, Sigma-Aldrich); • 1% EDMAD (ethyl-4-dimethylamino benzoate, CAS 10287-53-3, Sigma-Aldrich) and was diluted with 20% by weight of EtOH for use.
For the tests execution, different quantities of the compounds according to examples 1, 5, 6 and 7 were added to the resin R2 in a quantity range from 0.1 to 10% by weight. The homogeneity of the material to be tested was ensured before application in the wells by carrying out a sonication (50%, 5 min) and mixing with Vortex (800 rpm, 5 min) of the various resins added with the compound according to the invention.

SMILES | MBC (S. mutans (ATCC 25175)) [µg/mL] | decrease in cell viability [1] | % Viability 24 h ([1]; 10 μg/mL) [%] | % Viability 72 h ([1]; 10 μg/mL) [%] | % Viability 24 h ([1]; 50 μg/mL) [%] | % Viability 72 h ([1]; 50 μg/mL) [%] | % Viability 24 h ([1]; 100 μg/mL) [%] | % Viability 72 h ([1]; 100 μg/mL) [%] | % Viability 24 h ([1]; 500 μg/mL) [%] | % Viability 72 h ([1]; 500 μg/mL) [%] | % Viability 24 h ([1]; 2 mg/mL) [%] | % Viability 72 h ([1]; 2 mg/mL) [%] | inhibition of bacterial survival by contact (optical density) ([2]; 1% by weight in resin R2) | % Viability 24 h ([1]; 1 μg/mL) [%] | % Viability 72 h ([1]; 1 μg/mL) [%] | maximum (tested) non-cytotoxic concentration [1] [µg/mL] | % Viability 24 h ([1]; 1 mg/mL) [%] | % Viability 72 h ([1]; 1 mg/mL) [%] | inhibition of bacterial survival by contact (optical density) ([2]; 0.5% by weight in resin R2)
C=C(C)C(=O)OCC[N+](C)(C)CCCCCCCCCCCC[N+](C)(C)CCOC(=O)C(=C)C.[Br-].[Br-] [Example 1] | 300 | did not show significant signs of decrease in cell viability | 95.3 ± 12.5 | 110.0 ± 13.8 | 105.6 ± 11.2 | 111.0 ± 7.2 | 102.7 ± 7.2 | 122.4 ± 7.0 | 86.6 ± 5.5 | 115.3 ± 11.6 | 80.6 ± 5.3 | 76.9 ± 8.4 | able to inhibit bacterial survival by contact | – | – | – | – | – | –
C=C(C)C(=O)OCC[N+](CC)(CC)CCCCCCCCCCCC[N+](CC)(CC)CCOC(=O)C(=C)C.[Br-].[Br-] [Example 5] | 20 | – | 119.2 ± 6.8 | 69.7 ± 17.0 | 83.4 ± 4.5 | 70.8 ± 17.8 | 95.9 ± 7.2 | 68.8 ± 17.5 | 2.5 ± 1.0 | – | – | – | able to inhibit bacterial survival by contact | 124.2 ± 6.3 | 72.6 ± 16.5 | 100 | – | – | –
C=C(C)C(=O)Nc1ccc([N+](C)(C)CCCCCCCCCCCC[N+](C)(C)c2ccc(NC(=O)C(C)=O)cc2)cc1.[Br-].[Br-] [Example 6] | 10 | – | 99.5 ± 13.5 | 97.7 ± 14 | 81.7 ± 8.2 | 71.5 ± 16.3 | 11.3 ± 2.1 | 2.0 ± 0.8 | 1.6 ± 0.9 | 2.6 ± 3.6 | – | – | – | 95.2 ± 13.2 | 103.2 ± 18.9 | – | 2.5 ± 0.9 | 3.5 ± 1.5 | able to inhibit bacterial survival by contact
C=C(C)C(=O)NCc1cc[n+](CCCCCCCCCCCC[n+]2ccc(CNC(=O)C(=C)C)cc2)cc1.[Br-].[Br-] [Example 7] | 2.5 | – | 105.9 ± 11.9 | 100.6 ± 17.7 | 96.1 ± 10.5 | 86.3 ± 16.4 | 91.7 ± 12.0 | 71.8 ± 13.4 | 91.9 ± 16.8 | 26.5 ± 5.1 | – | – | able to inhibit bacterial survival by contact | 110.8 ± 15.9 | 97.3 ± 17.5 | 50 | 49.1 ± 8.1 | 5.0 ± 2.3 | –
